Where a name gives a salt, the structure may show the parent alone.
melting point: 80 to 85 °C
SMILES: OC(C1CCCCC1)C(CCN1CC=C(c2cccc3sccc23)CC1)c1ccccn1 (stereo not shown) (as salt: oxalate)
